The source of these data is patent publication US20210246157A1, “CAMPTOTHECIN DERIVATIVES AND PREPARATION METHODS AND APPLICATIONS THEREOF” (priority 2018, published 2021).

The test system of series [1] is H1975. As to the kind of experiment: Cytotoxicity test (MTT, 72 h). Conditions: Homo sapiens, NCI-H1975, 72 h, read-out: 50% Inhibiting Concentration value (IC50).
Procedure: (§1) In order to investigate the antitumor activities of the compounds, a variety of tumor cell lines for test are selected. Cells at logarithmic growth period are inoculated in a 96-well plate overnight, then drugs with a certain gradient concentrations are added, and incubation is carried out in a cell culture chamber (5% CO2, 37° C.) for 72 h.
Series [2] concerns SKOV-3. As to the kind of experiment: Cytotoxicity test (MTT, 72 h). The conditions noted are these: Homo sapiens, SK-OV-3, 72 h, read-out: 50% Inhibiting Concentration value (IC50).
Procedure: (§2) Cells at logarithmic growth period are inoculated in a 96-well plate overnight, then drugs with a certain gradient concentrations are added, and incubation is carried out in a cell culture chamber (5% CO2, 37° C.) for 72 h.
The subject of series [3] is PC3. As to the kind of experiment: Cytotoxicity test (MTT, 72 h). The conditions noted are these: Homo sapiens, PC-3, 72 h, read-out: 50% Inhibiting Concentration value (IC50).
Procedure: as §1
Series [4] relates to A549. Kind of series: Cytotoxicity test (MTT, 72 h). Conditions: Homo sapiens, A549, 72 h, read-out: 50% Inhibiting Concentration value (IC50).
Procedure: as §1
For series [5], the system named is ECA-109. Kind of series: Cytotoxicity test (MTT, 72 h). The conditions noted are these: Homo sapiens, ECa-109, 72 h, read-out: 50% Inhibiting Concentration value (IC50).
Procedure: as §1
Series [6] deals with Hela. Kind of series: Cytotoxicity test (MTT, 72 h). Conditions: Homo sapiens, read-out: 50% Inhibiting Concentration value (IC50).
Procedure: as §1
Series [7] relates to 143B. As to the kind of experiment: Cytotoxicity test (MTT, 72 h). The conditions noted are these: Homo sapiens, read-out: 50% Inhibiting Concentration value (IC50).
Procedure: as §1
Series [8] relates to HCT-116. Kind of series: Cytotoxicity test (MTT, 72 h). Conditions: Homo sapiens, HCT-116, 72 h, read-out: 50% Inhibiting Concentration value (IC50).
Procedure: as §1
Series [9] concerns MDA-MB-231. As to the kind of experiment: Cytotoxicity test (MTT, 72 h). The conditions noted are these: Homo sapiens, MDA-MB-231, 72 h, read-out: 50% Inhibiting Concentration value (IC50).
Procedure: as §1
Series [10] concerns TPC-1. As to the kind of experiment: Cytotoxicity test (MTT, 72 h). Conditions: Homo sapiens, TPC1, 72 h, read-out: 50% Inhibiting Concentration value (IC50).
Procedure: as §2
Series [11] has as its system HT-29. As to the kind of experiment: Cytotoxicity test (MTT, 72 h). Conditions: Homo sapiens, HT-29, 72 h, read-out: 50% Inhibiting Concentration value (IC50).
Procedure: as §2
Series [12] in a line: Multi-dose in vivo antitumor activity study, mouse weight (Example 20). Set-up: species or system mice. The conditions noted are these: CPT-11 group 10 mg/kg, caudal vein once every 2 days. As for the experimental part:
The drugs are administered through the caudal veins of mice once every 2 days for a total of 7 times.
At the end of the treatment cycle, the orbital venous blood of the mice is collected for later blood routine test, the mice are killed by cervical dislocation method, and tumors are removed immediately and photographed. From day 0, the mice in each group are weighed every three days, and the weights are recorded. The weight average value of each group is calculated, and mouse weight variation curve is drawn according to statistical data. At the end of the treatment cycle, tumors are removed from anesthetized mice immediately and weighted, and the tumor weight of each group is recorded. The tumor inhibition rate (%) is calculated according to the following formula: […]

Series [13] deals with K562. Kind of series: Cytotoxicity test (MTT, 72 h). Conditions: Homo sapiens, K562, 72 h, read-out: 50% Inhibiting Concentration value (IC50).
Procedure: as §1
The subject of series [14] is BGC-823. As to the kind of experiment: Cytotoxicity test (MTT, 72 h). The conditions noted are these: Homo sapiens, BGC-823, 72 h, read-out: 50% Inhibiting Concentration value (IC50).
Procedure: as §1
For series [15], the system named is PANC-1. Kind of series: Cytotoxicity test (MTT, 72 h). Conditions: Homo sapiens, PANC-1, 72 h, read-out: 50% Inhibiting Concentration value (IC50).
Procedure: as §2
Series [16] concerns HepG2. Kind of series: Cytotoxicity test (MTT, 72 h). Conditions: Homo sapiens, HepG2, 72 h, read-out: 50% Inhibiting Concentration value (IC50).
Procedure: as §1
In series [17] the test system is SW-480. Kind of series: Cytotoxicity test (MTT, 72 h). The conditions noted are these: Homo sapiens, SW480, 72 h, read-out: 50% Inhibiting Concentration value (IC50).
Procedure: as §2
Series [18] can be described thus: Solubility test, equilibrium method, UV-visible spectrophotometry. The class given is physicochemical. Conditions: for solubility: thermodynamic from solid. As for the experimental part: The solubility test is carried out by equilibrium method. […] An appropriate amount of the compound is weighed and dissolved in 1 mL of methanol solution to prepare a control solution with a certain concentration (C0). The concentration of test solution is calculated according to the following formula: Cx=(Ax/A0)C0, wherein Cx is concentration of test solution, Ax is absorbance of test solution, C0 is concentration of control solution, and A0 is absorbance of control solution.

The test system of series [19] is tumor. The conditions noted are these: Santi et al., J Med Chem. 2014; cited from earlier work.
The conditions of series [20]: common drug solvents and water; Santi et al.; cited from earlier work.

Values after ≈ are worked out from the molar mass of the structure shown. Structures can show the parent of a compound that is named as a salt. Where two headings read alike, the source gives them in different places.

Turning to `CCc1c2c(nc3ccc(OC(=O)N4CCC(N5CCCCC5)CC4)cc13)-c1cc3c(c(=O)n1C2)COC(=O)[C@]3(O)CC` [CPT-11, Irinotecan hydrochloride, reference compound], the IC50 was found to be 29.1 µM in [1]; 16.5 µM in series [2]; 25.1 µM in [3]; 35 µM in [4]; 11.7 µM in [5]; 12 µM in series [6]. The IC50 is 20.3 µM in [7]; 14.1 µM in [8]; 14.4 µM in series [9]; 25 µM in [10]; 12.8 µM in series [11]; 10.7 µM in [13]. The IC50 is 9.15 µM in series [14], 22 µM in [15], 22.1 µM in series [16] and 7.38 µM in [17]. Also, the “Mouse Weight” value is 16.53 g in series [12] (day 0); 15.87 g in [12] (day 3); 16.10 g in series [12] (day 6); 16.96 g in series [12] (day 9); 16.53 g in series [12] (day 12); 16.86 g in [12] (day 15). The “Mouse Weight” value is 16.27 g in [12] (day 18) and 17.28 g in [12] (day 21). Moreover, the solubility in [18] (0.1% aqueous solution of Tween-80, aqueous with cosolvent or surfactant or cyclodextrin, read-out: Solubility in 0.1% Tween-80) amounted to 597 µg/mL; in [18] (aqueous buffer, PBS pH 7.4, read-out: Solubility in PBS (pH = 7.4)), 843 µg/mL; in series [18] (normal saline, saline or isotonic, read-out: Solubility in Normal Saline (NS)), 1220 µg/mL; in series [18] (water, read-out: Solubility in Water) it was 6300 µg/mL.
On to `CCc1c2c(nc3ccc(O)cc13)-c1cc3c(c(=O)n1C2)COC(=O)[C@]3(O)CC` [SN38, reference compound], for which, in [19], the “in vitro antitumor activity relative to irinotecan” value was 100-1000 times. Besides, the “solubility (in words)” value in series [20] is “almost insoluble in common drug solvents and water”. Moreover, the “Solubility in 0.1% Tween-80” value in [18] (0.1% aqueous solution of Tween-80) was 77.4 µg/mL (≈ 197 µM). Also, the “Solubility in PBS (pH = 7.4)” value in [18] (PBS pH 7.4) is 17.6 μg/mL. The “Solubility in Normal Saline (NS)” value in [18] (normal saline) is 7.5 µg/mL (≈ 19.1 µM). The “solubility in water, normal saline, PBS (PH 7.4) and 0.1% aqueous solution of Tween-80 (in words)” value in series [18] (summary of Table 1) is given as “very low solubility”. For the same compound, the “Solubility in Water” value in series [18] (water) came to 7.7 µg/mL (≈ 19.6 µM).

As a reminder, the solubility is the concentration that dissolves in the medium under given conditions.
